Test results taken from patent US20150274719A1, “AMINO-SUBSTITUTED IMIDAZO[1,2-A]PYRIDINECARBOXAMIDES AND THEIR USE” (BAYER PHARMA AKTIENGESELLSCHAFT, priority 2012, published 2015).

target: T1, recombinant guanylate cyclase reporter cell line (Rattus norvegicus, UniProt P19686+P20595); assay: Action on recombinant guanylate cyclase reporter cell line; assay type: cell-based; conditions: in some cases mean values from individual determinations
T1 construct: expressed in transfected cells; host or cells: recombinant reporter cell line
T1 sequence (P19686 1-690): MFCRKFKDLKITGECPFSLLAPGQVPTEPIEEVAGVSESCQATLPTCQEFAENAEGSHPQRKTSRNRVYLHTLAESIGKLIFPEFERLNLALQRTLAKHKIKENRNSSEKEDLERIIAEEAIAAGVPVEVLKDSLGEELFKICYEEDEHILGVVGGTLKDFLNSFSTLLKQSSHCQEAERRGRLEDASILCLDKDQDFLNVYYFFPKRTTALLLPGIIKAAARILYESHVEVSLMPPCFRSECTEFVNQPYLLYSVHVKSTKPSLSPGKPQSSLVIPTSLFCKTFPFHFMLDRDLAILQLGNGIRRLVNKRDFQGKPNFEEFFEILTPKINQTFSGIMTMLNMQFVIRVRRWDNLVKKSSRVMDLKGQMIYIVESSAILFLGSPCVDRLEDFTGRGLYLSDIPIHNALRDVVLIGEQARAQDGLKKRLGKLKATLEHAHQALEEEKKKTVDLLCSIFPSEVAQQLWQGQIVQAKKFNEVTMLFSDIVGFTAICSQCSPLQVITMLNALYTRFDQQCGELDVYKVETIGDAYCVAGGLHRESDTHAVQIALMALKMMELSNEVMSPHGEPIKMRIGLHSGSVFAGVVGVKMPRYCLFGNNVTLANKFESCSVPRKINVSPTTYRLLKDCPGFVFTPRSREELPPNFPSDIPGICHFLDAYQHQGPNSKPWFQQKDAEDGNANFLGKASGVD
T1 sequence (P20595 1-619): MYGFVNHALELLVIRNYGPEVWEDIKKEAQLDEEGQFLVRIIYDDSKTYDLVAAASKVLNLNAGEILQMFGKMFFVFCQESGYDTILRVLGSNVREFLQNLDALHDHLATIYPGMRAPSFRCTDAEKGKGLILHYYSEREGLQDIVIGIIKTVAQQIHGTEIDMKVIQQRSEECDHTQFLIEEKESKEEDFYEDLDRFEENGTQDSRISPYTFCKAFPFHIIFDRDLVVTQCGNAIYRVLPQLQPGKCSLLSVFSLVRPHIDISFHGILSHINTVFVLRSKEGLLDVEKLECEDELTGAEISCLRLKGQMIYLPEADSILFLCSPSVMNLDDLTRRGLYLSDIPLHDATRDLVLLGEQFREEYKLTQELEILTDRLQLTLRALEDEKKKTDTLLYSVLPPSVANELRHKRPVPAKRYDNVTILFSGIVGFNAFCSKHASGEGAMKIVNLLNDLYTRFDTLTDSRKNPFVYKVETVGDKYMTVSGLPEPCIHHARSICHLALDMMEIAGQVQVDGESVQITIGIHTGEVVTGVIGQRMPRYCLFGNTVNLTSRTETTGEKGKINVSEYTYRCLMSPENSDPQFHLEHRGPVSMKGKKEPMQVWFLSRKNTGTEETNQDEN
Summary of the method: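 Each compound is applied to a cell line engineered with a reporter for recombinant guanylate cyclase. The minimal effective concentration is then noted, in part as a mean across separate determinations.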

| Compound | MEC (minimal effective concentration) [µM] |
| --- | --- |
| Cc1nc2c(OCc3c(F)cccc3F)cccn2c1C(=O)NC(CN)c1ccc(F)cc1F (stereo not drawn) [Example 21, ent-N-[2-Amino-1-(2,4-difluorophenyl)ethyl]-8-[(2,6-difluorobenzyl)oxy]-2-methylimidazo[1,2-a]-pyridine-3-carboxamide] | 0.30 |
| Cc1nc2c(OCc3c(F)cccc3F)cc(Cl)cn2c1C(=O)NCC(C)(N)C(F)(F)F (single isomer, unassigned) [Example 237, ent-N-(2-Amino-3,3,3-trifluoro-2-methylpropyl)-6-chloro-8-[(2,6-difluorobenzyl)oxy]-2-methyl-imidazo[1,2-a]pyridine-3-carboxamide] | 0.30 |
| Cc1cc(OCc2c(F)cccc2F)c2nc(C)c(C(=O)NCC(C)(N)CO)n2c1 (single isomer, unassigned; enantiomer b) [Example 269, ent-N-(2-Amino-3-hydroxy-2-methylpropyl)-8-[(2,6-difluorobenzyl)oxy]-2,6-dimethylimidazo-[1,2-a]pyridine-3-carboxamide (Enantiomer B)] | 0.65 |
| Cc1nc2c(OCc3c(F)cccc3F)cccn2c1C(=O)NC(CN)CC(F)(F)F (single isomer, unassigned; enantiomer b) [Example 3, ent-N-(1-Amino-4,4,4-trifluorobutan-2-yl)-8-[(2,6-difluorobenzyl)oxy]-2-methylimidazo[1,2-a]-pyridine-3-carboxamide (Enantiomer B)] | 0.30 |
| CCCC(C)(N)CNC(=O)c1c(CC)nc2c(OCc3c(F)cccc3F)cc(C)cn12 (stereo not drawn) [Example 338, ent-N-(2-amino-2-methylpentyl)-8-[(2,6-difluorobenzyl)oxy]-2-ethyl-6-methylimidazo[1,2-a]pyridine-3-carboxamide] | 0.10 |
| Cc1cc(OCc2c(F)cccc2F)c2nc(C)c(C(=O)NC3CCC3(C)N)n2c1 (single isomer, unassigned; enantiomer a) [Example 332, ent-N-[2-amino-2-methylcyclobutyl]-8-[(2,6-difluorobenzyl)oxy]-2,6-dimethylimidazo[1,2-a]pyridine-3-carboxamide (Enantiomer A)] | 1.00 |
| Cc1cc(OCc2c(F)cccc2F)c2nc(C)c(C(=O)NCC(N)CC(F)(F)F)n2c1 (single isomer, unassigned) [Example 129, ent-N-(2-Amino-4,4,4-trifluorobutyl)-8-[(2,6-difluorobenzyl)oxy]-2,6-dimethylimidazo[1,2-a]-pyridine-3-carboxamide] | 0.10 |
| Cc1nc2c(OCc3c(F)cccc3F)cc(Cl)cn2c1C(=O)NCC(C)N (single isomer, unassigned) [Example 30, ent-N-(2-Aminopropyl)-6-chloro-8-[(2,6-difluorobenzyl)oxy]-2-methylimidazo[1,2-a]pyridine-3-carboxamide] | 0.30 |
| COc1ccc(CC(C)(CN)NC(=O)c2c(C)nc3c(OCc4c(F)cccc4F)cc(C)cn23)cc1 (racemic) [Example 386, rac-N-[1-amino-3-(4-methoxyphenyl)-2-methylpropan-2-yl]-8-[(2,6-difluorobenzyl)oxy]-2,6-dimethylimidazo[1,2-a]pyridine-3-carboxamide] | 0.65 |
| CCCC(C)(N)CNC(=O)c1c(C)nc2c(OCc3c(F)cccc3F)c(F)ccn12 (racemic) [Example 277, rac-N-(2-Amino-2-methylpentyl)-8-[(2,6-difluorobenzyl)oxy]-7-fluoro-2-methylimidazo[1,2-a]-pyridine-3-carboxamide] | 1.00 |
| Cc1cc(OCc2c(F)cccc2F)c2nc(C)c(C(=O)NCC3CS(=O)(=O)CCN3)n2c1 (racemic) [Example 414, rac-8-[(2,6-difluorobenzyl)oxy]-N-[(1,1-dioxidothiomorpholin-3-yl)methyl]-2,6-dimethylimidazo[1,2-a]pyridine-3-carboxamide] | 0.30 |
| Cc1nc2c(OCc3c(F)cccc3F)cccn2c1C(=O)NCC1(N)CCCC1 [Example 41, N-[(1-aminocyclopentyl)methyl]-8-[(2,6-difluorobenzyl)oxy]-2-methylimidazo[1,2-a]-pyridine-3-carboxamide] | 0.30 |
| Cc1cc(OCc2c(F)cccc2F)c2nc(C)c(C(=O)NC3C(N)C3(C)C)n2c1 (racemic) [Example 341, rac-N-(3-amino-2,2-dimethylcyclopropyl)-8-[(2,6-difluorobenzyl)oxy]-2,6-dimethylimidazo[1,2-a]pyridine-3-carboxamide (racemate)] | 0.30 |
| Cc1nc2c(OCc3c(F)cccc3F)cc(Cl)cn2c1C(=O)NC(C)C1CCN(C)CC1 (racemic) [Example 78, rac-6-chloro-8-[(2,6-difluorobenzyl)oxy]-2-methyl-N-[1-(1-methylpiperidin-4-yl)ethyl]-imidazo[1,2-a]pyridine-3-carboxamide] | 1.00 |
| Cc1cc(OCCC(C(F)(F)F)C(F)(F)F)c2nc(C)c(C(=O)NCC(C)(N)CC(C)C)n2c1 (racemic) [Example 258, rac-N-(2-Amino-2,4-dimethylpentyl)-2,6-dimethyl-8-[4,4,4-trifluoro-3-(trifluoromethyl)butoxy]-imidazo[1,2-a]pyridine-3-carboxamide] | 1.00 |
| Cc1nc2c(OCc3c(F)cccc3F)cc(Cl)cn2c1C(=O)NC(C)CN (stereo not drawn) [Example 22, ent-N-(1-aminopropan-2-yl)-6-chloro-8-[(2,6-difluorobenzyl)oxy]-2-methylimidazo[1,2-a]-pyridine-3-carboxamide] | 0.30 |
| Cc1cc(OCc2c(F)cccc2F)c2nc(C)c(C(=O)NCC(C)(N)C(F)(F)F)n2c1 (single isomer, unassigned) [Example 241, ent-N-(2-Amino-3,3,3-trifluoro-2-methylpropyl)-8-[(2,6-difluorobenzyl)oxy]-2,6-dimethylimidazo-[1,2-a]pyridine-3-carboxamide] | 0.30 |
| CCCC(C)(N)CNC(=O)c1c(C)nc2c(OCc3c(F)cccc3F)cc(OC)cn12 (single isomer, unassigned; enantiomer b) [Example 278, ent-N-(2-amino-2-methylpentyl)-8-[(2,6-difluorobenzyl)oxy]-6-methoxy-2-methylimidazo[1,2-a]pyridine-3-carboxamide (Enantiomer B)] | 0.3 |
| Cc1nc2c(OCc3c(F)cccc3F)cccn2c1C(=O)NC(CN)COC(C)C (single isomer, unassigned) [Example 93, ent-N-(1-Amino-3-isopropoxypropan-2-yl)-8-[(2,6-difluorobenzyl)oxy]-2-methylimidazo[1,2-a]-pyridine-3-carboxamide] | 0.30 |
| CCCC[C@H](CN(C)C)NC(=O)c1c(C)nc2c(OCc3c(F)cccc3F)cccn12 [Example 68, ent-8-[(2,6-difluorobenzyl)oxy]-N-[(2R)-1-(dimethylamino)hexan-2-yl]-2-methylimidazo[1,2-a]-pyridine-3-carboxamide] | 0.30 |
| CCC1CC(NC(=O)c2c(C)nc3c(OCc4c(F)cccc4F)cc(C)cn23)c2nc(C(F)(F)F)ccc2N1 (single isomer, unassigned; ent-8) [Example 325, ent-8-[(2,6-Difluorobenzyl)oxy]-N-[2-ethyl-6-(trifluoromethyl)-1,2,3,4-tetrahydro-1,5-naphthyridin-4-yl]-2,6-dimethylimidazo[1,2-a]pyridine-3-carboxamide] | 0.30 |
| COCC(C)(N)CNC(=O)c1c(C)nc2c(OCc3c(F)cccc3F)cc(C)cn12 (single isomer, unassigned) [Example 199, ent-N-(2-Amino-3-methoxy-2-methylpropyl)-8-[(2,6-difluorobenzyl)oxy]-2,6-dimethylimidazo-[1,2-a]pyridine-3-carboxamide] | 0.30 |
